Publication PMC6642608, “Putative trehalose biosynthesis proteins function as differential floridoside-6-phosphate synthases to participate in the abiotic stress response in the red alga Pyropia haitanensis” (BMC Plant Biology, 2019)

How the values were obtained:
Assay in all cases: HPLC-MS of products after alkaline phosphatase
Assay type in all cases: biochemical
Conditions in all cases: 100 mM UDP-galactose, 10 mM MgSO4, pH 8.0 protein buffer, 30 °C, 16 h
PhTPS3 = molecular target: T1, PhTPS3 (Pyropia haitanensis, UniProt A0A0A7PA46)
T1 construct: E. coli BL21, pET-28a or pET-28a-sumo, His tag, sumo-His tag cut before assay; full-length ORF 1108 aa
T1 sequence (A0A0A7PA46 entry or part of it): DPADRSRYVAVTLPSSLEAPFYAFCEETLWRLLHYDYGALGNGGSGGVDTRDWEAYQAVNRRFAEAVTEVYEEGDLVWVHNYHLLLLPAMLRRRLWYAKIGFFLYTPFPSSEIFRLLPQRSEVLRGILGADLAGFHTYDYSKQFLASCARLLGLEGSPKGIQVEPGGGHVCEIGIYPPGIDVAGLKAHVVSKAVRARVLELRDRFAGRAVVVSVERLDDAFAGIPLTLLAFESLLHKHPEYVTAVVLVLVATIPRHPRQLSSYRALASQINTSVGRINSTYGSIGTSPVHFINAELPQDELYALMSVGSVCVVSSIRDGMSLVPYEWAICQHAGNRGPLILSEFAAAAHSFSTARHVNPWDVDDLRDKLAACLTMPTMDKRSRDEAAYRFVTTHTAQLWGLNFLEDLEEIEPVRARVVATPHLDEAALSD

PhTPS1 = molecular target: T2, PhTPS1 (Pyropia haitanensis, UniProt T1UQ24)
T2 construct: E. coli BL21, pET-28a or pET-28a-sumo, His tag, sumo-His tag cut before assay; full-length ORF 1154 aa
T2 sequence (T1UQ24 entry or part of it): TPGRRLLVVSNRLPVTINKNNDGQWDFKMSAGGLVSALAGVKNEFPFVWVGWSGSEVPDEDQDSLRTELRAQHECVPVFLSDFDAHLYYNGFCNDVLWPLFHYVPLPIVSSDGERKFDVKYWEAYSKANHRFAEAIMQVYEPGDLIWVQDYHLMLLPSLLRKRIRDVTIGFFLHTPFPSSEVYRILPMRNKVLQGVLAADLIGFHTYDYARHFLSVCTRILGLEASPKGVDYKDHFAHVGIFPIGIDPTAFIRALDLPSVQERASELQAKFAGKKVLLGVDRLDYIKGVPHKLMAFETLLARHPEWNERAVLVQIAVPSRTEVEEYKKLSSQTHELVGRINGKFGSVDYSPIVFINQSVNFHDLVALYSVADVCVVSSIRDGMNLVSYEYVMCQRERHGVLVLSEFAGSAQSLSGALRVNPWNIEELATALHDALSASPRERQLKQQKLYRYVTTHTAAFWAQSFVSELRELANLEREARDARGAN

PhTPS4 = molecular target: T3, PhTPS4 (Pyropia haitanensis, UniProt U3GP00)
T3 construct: E. coli BL21, pET-28a or pET-28a-sumo, His tag, sumo-His tag cut before assay; full-length ORF 1008 aa with N-terminal CBM20
T3 sequence (U3GP00 entry or part of it): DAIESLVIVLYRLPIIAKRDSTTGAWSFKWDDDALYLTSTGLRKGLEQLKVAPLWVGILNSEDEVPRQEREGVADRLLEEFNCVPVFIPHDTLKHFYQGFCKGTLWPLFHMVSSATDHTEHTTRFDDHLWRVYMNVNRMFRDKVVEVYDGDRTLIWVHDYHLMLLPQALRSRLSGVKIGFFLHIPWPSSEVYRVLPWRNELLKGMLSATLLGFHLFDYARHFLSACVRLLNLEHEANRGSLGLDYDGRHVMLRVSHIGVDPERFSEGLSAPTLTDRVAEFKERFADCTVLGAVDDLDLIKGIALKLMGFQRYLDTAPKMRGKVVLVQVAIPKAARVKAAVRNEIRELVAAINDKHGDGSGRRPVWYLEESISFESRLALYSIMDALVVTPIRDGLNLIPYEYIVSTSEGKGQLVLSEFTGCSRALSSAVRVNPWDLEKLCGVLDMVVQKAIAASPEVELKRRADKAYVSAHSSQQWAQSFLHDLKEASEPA

Compound: O=P(O)(O)OC[C@H](O)CO [G3P]
- HPLC-MS of products after alkaline phosphatase (PhTPS3): UDP-Gal and G3P were allowed to react with them
- HPLC-MS of products after alkaline phosphatase (PhTPS1): UDP-Gal and G3P were allowed to react with them
- HPLC-MS of products after alkaline phosphatase (PhTPS4): UDP-Gal and G3P were allowed to react with them
